According to patent publication US20200030263A1, “METHODS AND COMPOSITIONS FOR PROMOTING WOUND HEALING WITH DECREASED SCAR FORMATION AFTER GLAUCOMA FILTRATION SURGERY” (United States Government as Represented by the Department …, priority 2017, published 2020):

Key:
[1] = system: site of sclerotomy in rabbit eyes after glaucoma filtration surgery; format: in vivo; conditions: for DAPI nuclear staining of conjunctival epithelium at site of sclerostomy: rabbit, in vivo
Method: (§1) Briefly, a rabbit model of glaucoma filtration surgery (GFS) was used. Rabbits underwent GFS received Balanced Salt Solution (BSS) or SAHA (50 μM) or mitomycin C (MMC; 0.04% (w/v)). Clinical scores of intraocular pressure (TOP), bleb vascularity and slit lamp examination were performed. On postoperative day 14, rabbits were sacrificed and the bleb tissues were collected for evaluation of tissue fibrosis with H&E, Masson trichrome (MT), α-smooth muscle actin (α-SMA), and F-actin staining. Further, SAHA-mediated acetylation of histones in corneal fibroblasts and conjunctiva were determined by western blot analysis.
On postoperative day 14, rabbits were humanely euthanized with pentobarbital (150 mg/kg) under general anesthesia. The eyes were enucleated together with the conjunctiva to preserve the bleb and snap frozen in optimal cutting temperature fluid. The tissues were sectioned and stained with hematoxylin and eosin. Masson's trichrome staining was performed to stain collagen. Immunofluorescence staining for f-actin (a marker for activated fibroblasts and myofibroblasts) was performed using Alexa Fluor® 594-conjugated phalloidin (1:40 dilution, A12381, Invitrogen Inc., Carlsbad, Calif.). Immunofluorescence staining for α-smooth muscle actin (αSMA), a marker for myofibroblasts, was performed with mouse monoclonal primary αSMA antibody (1:100 dilution, M0851; Dako, Carpinteria, Calif.). Tissue sections were incubated with 2% bovine serum albumin for 30 minutes at room temperature and then with αSMA monoclonal antibody for 90 minutes. For detection of the primary antibody, the sections were exposed to Alexa 488 goat anti-mouse IgG secondary antibody (1:500 dilution, A11001; Invitrogen Inc.) for 1 hour. The tissue sections at the site of sclerotomy and the sections on every sixth tissue slide on the either side of the sclerotomy were stained for f-actin and αSMA. After completion of immunostaining, tissue sections were mounted in medium containing DAPI (Vectashield; Vector Laboratories, Inc. Burlingame, Calif.), viewed, and photographed under a fluorescence microscope (Leica, Deerfield, Ill.) equipped with a digital camera system (SpotCam RT KE; Diagnostic Instruments, Sterling, Mich.). The stained areas in the imaged slides were quantified using Image J software.
(§2) The results are expressed as mean±SEM. The data for bleb length, area, vascularity and IOP were analyzed by two way ANOVA and Bonferroni test using GraphPad Prism 6.0 (GraphPad Software, Inc., La Jolla, Calif.) and p<0.05 was considered to be statistical significant. The immunostaining data was analyzed using a t-test.

[2] = Stability of 0.02% Mitomycin C solution; format: physicochemical; conditions: 0.02% solution in sterile normal saline, room temperature
Method: (§3) A 10 mM stock solution of SAHA (Cayman Chemical Company, Ann Arbor, Mich., USA) was prepared using dimethyl sulfoxide (DMSO), and diluted to 25 μM with balanced salt solution (BSS) eye drops (Alcon). For vehicle control, the same volume of DMSO was diluted with BSS. The 0.02% Mitomycin C solution was prepared at the Harry S. Truman VA Hospital Pharmacy, Columbia, Mo. using 5 mg/ml powder (Accord Healthcare, Inc., Durham, N.C., USA) diluted with sterile normal saline. This solution was stable for 1 week at room temperature but was used within 48 hours after preparation. After PRK, rabbits were divided into 3 groups: Group-1 received a single topical application of SAHA (25 μM) for 5 minutes (n=15), Group-2 received a single topical application of MMC (0.02%) for 1 minute (n=15) and Group-3 received a single topical application of vehicle for 5 minutes (n=15). Thereafter, eyes were washed profusely with BSS. The contralateral eye served as naive control. All rabbits received clinical eye examination.

[3] = system: corneal haze in rabbits produced with −9.0 diopter PRK; assay: Corneal haze after −9.0 diopter PRK in rabbits: efficacy (slit-lamp haze score, αSMA immunofluorescence); format: in vivo, rabbit; conditions: for Haze score: at 4-months after PRK, Fantes scale, single topical SAHA 25 μM 5 min or MMC 0.02% 1 min, BSS 2.7±0.4; for post-PRK corneal haze compared to no-drug treated corneas: single topical application, p<0.001
Description: Photorefractive keratectomy was used to produce corneal haze in rabbits by performing −9.0 diopter ablation with the Summit Apex excimer laser (Model: SVS APEX Plus ER; Alcon, Ft. Worth, Tex.) as reported previously. Briefly, the rabbits were anesthetized and local anesthesia of the cornea was achieved through the application of topical ophthalmic 0.5% proparacaine hydrochloride (Alcon, Fort Worth, Tex.). A wire lid speculum was placed and corneal epithelium was removed by gentle scraping with surgical Beaver blade #64 (BD Biosciences, Franklin Lakes, N.J.). […] Only one eye of each animal was used for experimentation.
A 10 mM stock solution of SAHA (Cayman Chemical Company, Ann Arbor, Mich., USA) was prepared using dimethyl sulfoxide (DMSO), and diluted to 25 μM with balanced salt solution (BSS) eye drops (Alcon). For vehicle control, the same volume of DMSO was diluted with BSS. […] After PRK, rabbits were divided into 3 groups: Group-1 received a single topical application of SAHA (25 μM) for 5 minutes (n=15), Group-2 received a single topical application of MMC (0.02%) for 1 minute (n=15) and Group-3 received a single topical application of vehicle for 5 minutes (n=15). Thereafter, eyes were washed profusely with BSS. The contralateral eye served as naive control. All rabbits received clinical eye examination.
Rabbits from each group were euthanatized 3-days (n=3), 1-month (n=6), and 4-months (n=6) after PRK. Corneas were snap frozen, sectioned (7 mm), and stored at −80° C. Immunofluorescence was used to detect myofibroblast marker αSMA using monoclonal antibody (M0851; Dako, Calif.). […] Sections were viewed and photographed under a fluorescence microscope (Leica, Deerfield, Ill.) equipped with a digital camera system (SpotCam RT KE; Diagnostic Instruments, MI).

[4] = system: human corneal endothelial cells; conditions: cited from earlier work
[5] = system: rabbit model of glaucoma filtration surgery; assay: Rabbit model of glaucoma filtration surgery (GFS): clinical evaluation of bleb, vascularity, IOP and tolerability; format: in vivo; conditions: for bleb appearance (biomicroscopy): day 3, 7, 14 after GFS, compared to flat and scarred blebs in no treatment control; for bleb area compared to untreated controls / bleb length compared to untreated controls: day 3, 7 and 14 after GFS; for bleb area compared to untreated controls: SAHA p<0.05, MMC p<0.01; for bleb length compared to untreated controls: p<0.001; for bleb vascularity score / intraocular pressure: day 7 and day 14 after GFS; for bleb vascularity score: versus no treatment control; for intraocular pressure: versus no-treatment control
Method: as §1
A 10 mM stock solution of SAHA (Cayman Chemical Company, Ann Arbor, Mich., USA) was prepared by dissolving in dimethyl sulfoxide (DMSO) and then further diluted to 50 μM with balanced salt solution (BSS) eye drops (Alcon). For vehicle control, the same volume of DMSO was diluted with BSS. The 0.04% MMC stock solution was prepared in BSS and 0.02% final dose of MMC was given to rabbits. The rabbits were divided into three treatment groups. Groups I rabbits received 100 μl subconjunctival injection of vehicle 30 minutes before the GFS surgery and group II rabbits received 100 μl subconjunctival injection of 50 μM SAHA solution 30 minutes before GFS. Group III rabbits were injected with 100 μl subconjunctival solution of 0.02% MMC 30 minutes before surgery.
Clinical evaluation was performed to check the intraocular pressure (TOP), general appearance and vascularity of the bleb. All these clinical parameters were recorded before the surgery to obtain the baseline values and on days 3, 5, 7, 10 and 14 after surgery. To measure TOP, tonometry was performed using an applanation tonometer (Tono-pen) with animals under topical anesthesia. Bleb's size was graded by measuring its width and length. Bleb vascularity was graded as 0=avascular; 1=normal vascularity; 2=hyperemic; 3=very hyperemic. Anterior chamber inflammation was assessed by slit lamp examination and graded 0=no inflammation; 1=cells present; 2=fibrin formation; 3=hypopyon present.
as §2

[6] = system: rabbit corneal endothelial cells and keratocytes after −9D PRK; assay: Rabbit PRK model: in vivo safety (specular microscopy, DAPI, TUNEL)
Method: Briefly, corneal haze in rabbits was produced with −9.0 diopter PRK. A single application of SAHA (25 μM) or MMC (0.02%) was applied topically immediately after PRK. Effects of the two drugs were analyzed by slit-lamp microscope, specular microscope, TUNEL assay, and immunofluorescence.
as §3
Slit-lamp (SL15, Kowa, Japan), stereo (MZ16F, Leica, Switzerland) and specular (NSP-8800, Konan, Japan) microscopes were used to evaluate ocular health, corneal haze, and corneal endothelial cells in anesthetized animals. Grading of clinical corneal haze was done using Fantes scale by three researchers (AS, MW and SG) in a masked manner. High performance digital imaging system (VK2; Kowa Tokyo, Japan) was used for corneal image analysis.
Rabbits from each group were euthanatized 3-days (n=3), 1-month (n=6), and 4-months (n=6) after PRK. Corneas were snap frozen, sectioned ([…]), and stored at −80° C. Immunofluorescence was used to detect myofibroblast marker αSMA using monoclonal antibody (M0851; Dako, Calif.). TUNEL assay (ApopTag, 57165; Billerica, Mass.) detected apoptosis and DAPI-stained nuclei determined cellular density. Sections were viewed and photographed under a fluorescence microscope (Leica, Deerfield, Ill.) equipped with a digital camera system (SpotCam RT KE; Diagnostic Instruments, MI).
Stained proteins in corneal sections were quantified using Image J software in six randomly selected areas. Standard error means were calculated. One-way ANOVA and Wilcoxon rank sum test were used for statistical analysis. The p value <0.05 was considered significant.

[7] = system: acetylation of Histone H3 and H4 in rabbit conjunctiva tissue; assay: Western blot of acetylated histones in rabbit conjunctiva after subconjunctival injection; format: in vivo; conditions: 100 μl subconjunctival 50 μM SAHA
Method: (§4) Rabbits were received 100 μl subconjunctival injection of 50 μM SAHA. Cell lysates were prepared from human corneal fibroblast cells treated with SAHA (2.5 μM) at 0, 2, 4, 6, 16 and 24 hours. Rabbit conjunctival tissues were harvested at 0, 2, 6 and 24 hour time points. Cell and tissue lysates were analyzed by western blotting using anti-acetyl Histone H3, anti-acetyl histone H4 (Cell Signaling, Beverly, Mass., USA) and (3-actin (Santa Cruz biotechnology Inc., Dallas, Tex., USA) antibodies respectively. All western blots for each protein were used 3 rabbit tissues and repeated at least two times. Digital quantification of western blots was performed using NIH Image J software and Image Studio software Version 5.2

[8] = system: acetylation of Histone H3 and H4 in human corneal fibroblast cells; assay: Western blot of acetylated histones in human corneal fibroblast cells; format: cell-based; conditions: SAHA 2.5 μM
Method: as §4

[9] = system: cultured rabbit, equine, canine and human corneal fibroblasts; conditions: previous studies from the lab; cited from earlier work
[10] = in vivo; cited from earlier work
[11] = system: cultured corneal fibroblasts; conditions: 50 μM or higher dose of SAHA; earlier studies; cited from earlier work
[12] = day 14 after GFS, versus no-treatment control
[13] = prophylactic MMC 0.02%, 10-50 seconds, nonrandomized controlled trial

SMILES: CO[C@@]12[C@H](COC(N)=O)C3=C(C(=O)C(C)=C(N)C3=O)N1C[C@@H]1N[C@@H]12 [MMC, mitomycin C]
- f-actin stained area (activated fibroblasts and myofibroblasts) [1, 12]: very robust decrease
- αSMA stained area (myofibroblasts) [1, 12]: very robust decrease
- DAPI nuclear staining of conjunctival epithelium at site of sclerostomy [1]: discontinuous and highly sparse DAPI nuclear staining
- stability of solution [2]: 1 week
- Haze score [3]: 0.85±0.15
- post-PRK corneal haze compared to no-drug treated corneas [3]: significantly decreased
- qualitative morphometric parameters or quantitative endothelial cell density ([4]; 0.02% MMC topically for 12 seconds and 40 seconds following PRK, other studies): did not have a significant effect
- corneal endothelial cells [4, 13]: significant loss of corneal endothelial cells
- haze formation after PRK [4, 13]: inhibited haze formation
- bleb appearance (biomicroscopy) [5]: elevated blebs but these blebs had a thin, avascular and cystic appearance
- bleb area compared to untreated controls [5]: significantly higher
- bleb length compared to untreated controls [5]: significantly higher
- bleb vascularity score [5]: very robust decrease
- intraocular pressure [5]: lower TOP compared to the no-treatment control eyes but the results were not statistically significant
- bleb vascularity by day 14 ([5]; day 14 after GFS): completely avascular
- ocular adverse findings on clinical evaluation ([5]; rabbit eyes after GFS, SAHA 50 μM or MMC 0.02% subconjunctival): corneal neovascularization and opacity
- corneal endothelial cell phenotype and density ([6]; 1-month after PRK): significantly compromised endothelial cell phenotype and density
- apoptosis (TUNEL+ cells in stroma and endothelium) ([6]; 1-month and 4-months): many TUNEL+ cells in the stroma and endothelium
- keratocyte number and density in stroma (DAPI-staining) ([6]; 1-month and 4-months post-PRK): significant keratocyte loss
- corneal endothelial cell phenotype and density ([6]; 4-months after PRK): still had compromised endothelial cells
- apoptosis (TUNEL assay) ([6]; corneas collected at 3-days): significant apoptosis in epithelial and keratocyte cells

SMILES: O=C(CCCCCCC(=O)Nc1ccccc1)NO [SAHA, suberoylanilide hydroxamic acid]
- Masson trichrome staining: collagen deposits at site of sclerotomy [1, 12]: less collagen deposits
- f-actin stained area (activated fibroblasts and myofibroblasts) [1, 12]: significant decrease
- αSMA stained area (myofibroblasts) [1, 12]: significant decrease
- H&E staining: fibrous deposit at site of sclerotomy ([1]; day 14 after GFS, control densely packed with fibrous tissue): mild fibrous deposit and a loosely arranged conjunctival tissue
- DAPI nuclear staining of conjunctival epithelium at site of sclerostomy [1]: continuous and uniform conjunctival epithelium
- time of maximum histone H3 and H4 acetylation [7]: 6 h
- acetylation status of histone H3 and H4 ([7]; 0, 2, 6 and 24 hour): increase the acetylation status of histone H3 and H4
- Haze score [3]: 0.9±0.1
- post-PRK corneal haze compared to no-drug treated corneas [3]: significantly decreased
- time of maximum histone H3 and H4 acetylation [8]: 6 h
- acetylation status of histone H3 and H4 ([8]; 0, 2, 4, 6, 16 and 24 hours): increase the acetylation status of histone H3 and H4
- differentiation of corneal fibroblasts to myofibroblasts [9]: capable of inhibiting differentiation
- plasma half-life [10]: short
- cellular viability of cultured corneal fibroblasts [11]: did not decrease cellular viability
- bleb appearance (biomicroscopy) [5]: transparent and elevated blebs
- bleb area compared to untreated controls [5]: significantly higher
- bleb length compared to untreated controls [5]: significantly higher
- bleb vascularity score [5]: significantly (p<0.01) attenuated
- intraocular pressure [5]: lower TOP compared to the no-treatment control eyes but the results were not statistically significant
- apoptosis (TUNEL assay) ([6]; rabbit, in vivo): did not induce apoptosis in any cell type
- keratocyte number and density in stroma (DAPI-staining) ([6]; rabbit, in vivo): did not reduce number or density of keratocytes
